Experiments:
[1] = Acute toxicity (LD50, Behrens-Karber method); type: in vivo, ICR mice; details: mouse, in vivo, ip, mortality during 30 days
Method: Test compounds, dissolved or suspended in 0.5% aqueous CMC, were each intraperitoneally administered to ICR mice in a dose of 0.1 ml per 10 g body weight. LD50 (mg/kg) value of each test compound was calculated from the mortality of mice during 30 days by the Behrens-Karber method.

Leukemia L1210 = test: Activity against Leukemia L1210, intraperitoneal, increase in life span of mice; type: in vivo, female mice (BDF1 family); details: for ED (maximum ILS) / ED30: Mus musculus, L1210, ip, ip once a day for 5 successive days; for ED (maximum ILS): daily dosage giving maximum increase of life span, read-out: O.D. (optimum dosage); for ED30: daily dosage increasing average survival days by 30%, read-out: ILS30; for Survivors after 60 days / Max. ILS % / Therapeutic ratio TR: ip; for Survivors after 60 days: 6-membered group; for Max. ILS %: 60-day observation, versus control; for Therapeutic ratio TR: O.D./ILS30
Summary of the method: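 L1210 cells (1×10^5) into abdominal cavity of female BDF1 mice, 20–23 g, n=6/group. Dosing 24 h post-implant, ip or po, qd ×5. 60-day observation; ILS% = mean survival vs untreated control; T.R. = O.D./ILS 30.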

Row | Compound | LD50 at 720 h [1] [mg/kg] | ED (maximum ILS) (Leukemia L1210) [mg/kg] | ED30 (Leukemia L1210) [mg/kg] | Survivors after 60 days (Leukemia L1210) | Max. ILS % (Leukemia L1210) [%] | Therapeutic ratio TR (Leukemia L1210)
1 | CC(C)CN(C[C@H]1O[C@H](OCc2ccccc2)[C@@H](O)[C@H](O)[C@@H]1O)C(=O)N(CCCl)N=O [Compound 139, 3-isobutyl-3-(benzyl α-D-altropyranose-6-yl)-1-(2-chloroethyl)-1-nitrosourea] | 420 | 130 | 4.58 | 3/6 | > 340 | 28.4
2 | COc1ccc(CO[C@H]2O[C@H](CN(C(=O)N(CCCl)N=O)C(C)(C)C)[C@@H](O)[C@H](O)[C@H]2O)cc1 [Compound 182, 3-tert-butyl-3-(p-methoxybenzyl α-D-glucopyranose-6-yl)-1-(2-chloroethyl)-1-nitrosourea] | 420 | 140 | 3.49 | 5/6 | > 620 | 40.1
3 | COCC(C)O[C@H]1O[C@H](CN(CC(C)C)C(=O)N(CCCl)N=O)[C@@H](O)[C@H](O)[C@H]1O (stereo partly drawn) [Compound 33, 3-isobutyl-3-(1-methyl-2-methoxyethyl α-D-glucopyranose-6-yl)-1-(2-chloroethyl)-1-nitrosourea] | 560 | 170 | 2.62 | 6/6 | > 700 | 64.9
4 | Cc1ccc(CN(C[C@H]2O[C@H](OC3CCCCC3)[C@H](O)[C@@H](O)[C@@H]2O)C(=O)N(CCCl)N=O)cc1 [Compound 47, 3-(p-methylbenzyl)-3-(cyclohexyl α-D-glucopyranose-6-yl)-1-(2-chloroethyl)-1-nitrosourea] | 545 | 170 | 4.97 | 4/6 | > 440 | 34.2
5 | CCC(C)O[C@H]1O[C@H](CN(CC(C)C)C(=O)N(CCCl)N=O)[C@@H](O)[C@H](O)[C@H]1O (stereo partly drawn) [Compound 17, 3-isobutyl-3-(sec-butyl α-D-glucopyranose-6-yl)-1-(2-chloroethyl)-1-nitrosourea] | 510 | 170 | 3.55 | 6/6 | > 700 | 47.9
6 | CCCCO[C@H]1O[C@H](CN(CC(C)C)C(=O)N(CCCl)N=O)[C@@H](O)[C@H](O)[C@H]1O [Compound 9, 3-isobutyl-3-(n-butyl α-D-glucopyranose-6-yl)-1-(2-chloroethyl)-1-nitrosourea] | 440 | 150 | 3.33 | 6/6 | > 700 | 45.0
7 | CCCCCCO[C@H]1O[C@H](CN(C(=O)N(CCCl)N=O)C(C)COC)[C@@H](O)[C@H](O)[C@H]1O (stereo partly drawn) [Compound 27, 3-(1-methyl-2-methoxyethyl)-3-(n-hexyl α-D-glucopyranose-6-yl)-1-(2-chloroethyl)-1-nitrosourea] | 505 | 170 | 4.67 | 5/6 | > 630 | 36.4
8 | CCOCCO[C@H]1O[C@H](CN(CC(C)(C)C)C(=O)N(CCCl)N=O)[C@@H](O)[C@H](O)[C@H]1O [Compound 187, 3-neopentyl-3-(2-ethoxyethyl α-D-glucopyranose-6-yl)-1-(2-choroethyl)-1-nitrosourea] | 510 | 160 | 2.66 | 6/6 | > 700 | 60.2
9 | COCCN(C(=O)N(CCCl)N=O)[C@@H]1[C@@H](OCCc2ccccc2)O[C@H](CO)[C@@H](O)[C@H]1O [Compound 142, 3-(2-methoxyethyl)-3-(phenyl-β-ethyl α-D-altropyranose-2-yl)-1-(2-chloroethyl)-1-nitrosourea] | 500 | 160 | 4.16 | 3/6 | > 350 | 38.5
10 | C=C(C)CN(C(=O)N(CCCl)N=O)[C@H]1[C@@H](OC(C)CC)O[C@H](CO)[C@@H](O)[C@@H]1O (stereo partly drawn) [Compound 60, 3-(2-methyl-2-propenyl)-3-(sec-butyl α -D-glucopyranose-2-yl)-1-(2-chloroethyl)-1-nitrosourea] | 580 | 200 | 7.15 | 3/6 | > 345 | 28.0
11 | CCCN(C(=O)N(CCCl)N=O)[C@@H]1[C@@H](O)[C@@H](OC2CCCCC2)OC[C@H]1O [Compound 147, 3-n-propyl-3-(cyclohexyl α-D-xylopyranose-3-yl)-1-(2-chloroethyl)-1-nitrosourea] | 430 | 150 | 3.91 | 3/6 | > 350 | 38.4
12 | C=C(C)CO[C@H]1O[C@H](CN(C(=O)N(CCCl)N=O)C(C)(C)C)[C@@H](O)[C@H](O)[C@H]1O [Compound 177, 3-tert-butyl-3-(2-methyl-2-propenyl α-D-glucopyranose-6-yl)-1-(2-chloroethyl)-1-nitrosourea] | 550 | 180 | 2.75 | 6/6 | > 700 | 65.4
13 | CC=CCO[C@H]1O[C@H](CN(CC(C)C)C(=O)N(CCCl)N=O)[C@@H](O)[C@H](O)[C@H]1O [Compound 29, 3-isobutyl-3-(2-butenyl α-D-glucopyranose-6-yl)-1-(2-chloroethyl)-1-nitrosourea] | 410 | 140 | 3.64 | 5/6 | > 620 | 38.5
14 | CCOCCCOC1OC(CO)C(O)C(N(CC(C)C)C(=O)N(CCCl)N=O)C1O [Compound 78, 3-isobutyl-3-(3-ethoxy-n-propyl α-D-glucopyranose-3-yl)-1-(2-chloroethyl)-1-nitrosourea] | 675 | 200 | 5.33 | 3/6 | > 355 | 37.5
15 | CCCCN(C[C@@H]1O[C@@H](OCC2CC2)[C@@H](O)[C@H](O)[C@@H]1O)C(=O)N(CCCl)N=O [Compound 134, 3-n-butyl-3-(cyclopropylmethyl α-L-galactopyranose-6-yl)-1-(2-chloroethyl)-1-nitrosourea] | 490 | 150 | 3.73 | 3/6 | > 365 | 40.2
16 | COCCCN(C(=O)N(CCCl)N=O)[C@@H]1CO[C@H](OC2CCCCC2)[C@@H](O)[C@@H]1O [Compound 160, 3-(3-methoxy-n-propyl)-3-(cyclohexyl α-D-arabinopyranose-4-yl)-1-(2-chloroethyl)-1-nitrosourea] | 550 | 180 | 3.1 | 6/6 | > 700 | 58.1
17 | COCC(C)OC1OC(CO)C(O)C(O)C1N(CC(C)C)C(=O)N(CCCl)N=O (stereo not drawn) [Compound 70] | 645 | 200 | 5.21 | 4/6 | > 420 | 38.4
18 | COC(C)CO[C@H]1O[C@H](CN(CC2CC2)C(=O)N(CCCl)N=O)[C@H](O)[C@H](O)[C@H]1O (stereo partly drawn) [Compound 116, 3-cyclopropylmethyl-3-(2-methoxy-n-propyl α-D-galactopyranose-6-yl)-1-(2-chloroethyl)-1-nitrosourea] | 450 | 150 | 2.51 | 6/6 | > 700 | 59.8
19 | CO[C@H]1O[C@H](CN(CCO)C(=O)N(CCCl)N=O)[C@@H](O)[C@H](O)[C@H]1O [Compound 6MCαGHE, 3-(2-hydroxyethyl)-3-(methyl α-D-glucopyranose-6-yl)-1-(2-chloroethyl)-1-nitrosourea, reference compound] | 90 | 30 | 1.4 | 4/6 | > 440 | 21.4
20 | CCCCCCN(C[C@H]1O[C@H](OC2CCCCC2)[C@H](O)[C@@H](O)[C@H]1O)C(=O)N(CCCl)N=O [Compound 100, 3-n-hexyl-3-(cyclohexyl α-D-galactopyranose-6-yl)-1-(2-chloroethyl)-1-nitrosourea] | 580 | 200 | 6.41 | 3/6 | > 330 | 31.2
21 | COc1ccc(CN(C[C@H]2O[C@H](OC3CCCCC3)[C@H](O)[C@@H](O)[C@@H]2O)C(=O)N(CCCl)N=O)cc1 [Compound 48, 3-(p-methoxybenzyl)-3-(cyclohexyl α-D-glucopyranose-6-yl)-1-(2-chloroethyl)-1-nitrosourea] | 530 | 170 | 4.64 | 4/6 | > 445 | 36.6
